Assay results from ChEMBL document CHEMBL5678795 (Eur J Pharmacol, 1999).
The source made the active and inactive calls. No cut-off for these calls is given here.

How the values were obtained:
Endothelin-1 receptor = target: T1, Endothelin-1 receptor (Homo sapiens, UniProt P25101); experiment: Displacement of [125I]endhothelin-1 from human ETA receptor stably expressed in CHO cells Membrane at 25 degC incubated for 3 hrs by radioligand competition binding assay; format: cell membranes
T1 sequence (P25101 whole entry): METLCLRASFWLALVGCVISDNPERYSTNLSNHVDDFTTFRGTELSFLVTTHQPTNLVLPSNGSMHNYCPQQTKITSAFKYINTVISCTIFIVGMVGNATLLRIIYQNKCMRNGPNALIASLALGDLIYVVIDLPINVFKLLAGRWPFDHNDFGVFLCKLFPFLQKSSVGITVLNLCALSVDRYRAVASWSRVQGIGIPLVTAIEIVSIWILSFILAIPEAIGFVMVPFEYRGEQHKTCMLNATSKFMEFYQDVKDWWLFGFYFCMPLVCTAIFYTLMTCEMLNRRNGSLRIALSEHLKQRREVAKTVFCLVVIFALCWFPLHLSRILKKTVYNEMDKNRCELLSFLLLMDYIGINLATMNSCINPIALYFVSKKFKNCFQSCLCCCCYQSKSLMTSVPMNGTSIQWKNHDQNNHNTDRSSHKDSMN

[1] = target: Beta-1 adrenergic receptor (Homo sapiens) (UniProt P08588); experiment: Displacement of [3H](-)CGP 12177 from human recombinant beta1-adrenoceptor at 10 uM incubated for 60 mins by radiometric based scintillation counter assay relative to control
[2] = target: Type-1 angiotensin II receptor (Homo sapiens) (UniProt P30556); experiment: Displacement of [125I][Sar1,Ile8]-AT-II from human recombinant angiotensin AT1 receptor at 10 uM incubated for 120 mins by radiometric based scintillation counter assay relative to control
Homo sapiens [3] = organism: Homo sapiens; experiment: Displacement of [3H] PK 11195 from central-type benzodiazepine (unknown origin) at 10 uM incubated for 15 mins by radiometric based scintillation counter assay relative to control
[4] = target: Cannabinoid receptor 1 (Homo sapiens) (UniProt P21554); experiment: Displacement of [3H]CP 55940 from human recombinant cannabinoid CB1 receptor at 10 uM incubated for 30 mins by radiometric based scintillation counter assay relative to control
[5] = target: Cholecystokinin receptor type A (Homo sapiens) (UniProt P32238); experiment: Displacement of [125I]CCK-8s from human recombinant cholecystokinin A receptor at 10 uM incubated for 60 mins by radiometric based scintillation counter assay relative to control
[6] = target: D(3) dopamine receptor (Homo sapiens) (UniProt P35462); experiment: Displacement of [3H]methyl-spiperone from human recombinant dopamine D3 receptor at 10 uM incubated for 60 mins by radiometric based scintillation counter assay relative to control
Rattus norvegicus = organism: Rattus norvegicus; experiment: Displacement of [3H]GABA from rat brain GABA receptor at 10 uM incubated for 60 mins by radiometric based scintillation counter assay relative to control; format: tissue-based
Homo sapiens [7] = organism: Homo sapiens; experiment: Inhibition of human galanin receptor at 10 uM by radioligand binding assay relative to control
[8] = target: Histamine H2 receptor (Homo sapiens) (UniProt P25021); experiment: Displacement of [125I]APT from human recombinant histamine H2 receptor at 10 uM incubated for 120 mins by radiometric based scintillation counter assay relative to control
[9] = target: Muscarinic acetylcholine receptor M1 (Homo sapiens) (UniProt P11229); experiment: Displacement of [3H]pirenzepine from human recombinant muscarinic M1 receptor at 10 uM incubated for 60 mins by radiometric based scintillation counter assay relative to control
[10] = target: Muscarinic acetylcholine receptor M5 (Homo sapiens) (UniProt P08912); experiment: Displacement of [3H]4-DAMP from human recombinant muscarinic M5 receptor at 10 uM incubated for 60 mins by radiometric based scintillation counter assay relative to control
[11] = target: Neuropeptide Y receptor type 1 (Homo sapiens) (UniProt P25929); experiment: Displacement of [125I]peptide YY from human recombinant Y1 receptor at 10 uM incubated for 120 mins by radiometric based scintillation counter assay relative to control
Homo sapiens [12] = organism: Homo sapiens; experiment: Inhibition of Thromboxane A2 receptor/prostaglandin H2 receptor (unknown origin) at 10 uM by radioligand binding assay relative to control
[13] = target: 5-hydroxytryptamine receptor 5A (Homo sapiens) (UniProt P47898); experiment: Displacement of [3H]LSD from human recombinant 5-Hydroxytryptamine 5A at 10 uM incubated for 120 mins by radiometric based scintillation counter assay relative to control
[14] = target: Sigma non-opioid intracellular receptor 1 (Homo sapiens) (UniProt Q99720); experiment: Displacement of [3H]DTG from human sigma-Receptor at 10 uM incubated for 120 mins by radiometric based scintillation counter assay relative to control
Mus musculus = organism: Mus musculus; experiment: Displacement of [125I]Tyr11-somatostatin-14 from mouse Somatostatin receptor at 10 uM incubated for 60 mins by radiometric based scintillation counter assay relative to control
[15] = target: Vasopressin V1a receptor (Homo sapiens) (UniProt P37288); experiment: Displacement of [3H]AVP from human recombinant Vasopressin V1a receptor at 10 uM incubated for 60 mins by radiometric based scintillation counter assay relative to control
Homo sapiens [16] = organism: Homo sapiens; experiment: Inhibition of Voltage-gated Na+ channel (site 1) (unknown origin) at 10 uM by radioligand binding assay relative to control
[17] = target: T2, Endothelin-1 receptor (Homo sapiens) (UniProt P25101); experiment: Antagonist activity at ETA receptor in human Pericardial smooth muscle cell assessed as inhibition of […] in presence of myo-[3H] inositol by anion exchange chromatography; format: functional, cell-based
T2 sequence (whole entry): T1 sequence (P25101 whole entry)

[18] = target: T3, Endothelin-1 receptor (Rattus norvegicus) (UniProt P26684); experiment: Antagonist activity to ETA receptor in endothelin-1 stimulated Sprague-Dawley rat aorta assessed as induction of vessel ring contraction upto 10 uM preincubated for 15 mins; format: functional, tissue-based
T3 sequence (whole entry): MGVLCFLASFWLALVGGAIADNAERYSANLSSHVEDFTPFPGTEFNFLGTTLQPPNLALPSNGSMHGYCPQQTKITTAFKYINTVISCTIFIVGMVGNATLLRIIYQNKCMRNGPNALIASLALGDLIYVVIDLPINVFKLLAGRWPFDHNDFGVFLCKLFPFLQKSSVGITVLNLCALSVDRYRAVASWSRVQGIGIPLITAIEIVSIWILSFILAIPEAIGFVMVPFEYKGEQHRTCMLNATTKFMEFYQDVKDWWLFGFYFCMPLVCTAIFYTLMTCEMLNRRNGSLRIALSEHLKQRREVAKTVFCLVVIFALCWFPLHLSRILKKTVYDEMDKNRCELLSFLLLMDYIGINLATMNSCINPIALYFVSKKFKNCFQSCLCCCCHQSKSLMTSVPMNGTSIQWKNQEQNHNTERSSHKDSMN

[19] = target: Endothelin receptor type B (Oryctolagus cuniculus) (UniProt Q9N0W7); experiment: Antagonist activity to ETB receptor in rabbit pulmonary artery assessed as induction of vessel ring contraction preincubated for 15 mins; format: functional, tissue-based
[20] = Half life in Beagle dog at 5 mg/kg, po administered for 12 hrs by HPLC analysis; format: ADME, organism-based, Canis lupus familiaris; conditions: in vivo
[21] = target: T3, Endothelin-1 receptor (Rattus norvegicus); experiment: In vivo antagonist activity to ETA receptor in endothelin-1 induced Sprague-Dawley rat assessed as inhibition of peak blood pressure administered for 1 to 4 hrs; format: functional, organism-based; conditions: dose 3-100 mg/kg, route po, time 1-4 hrs

Sequence of Cholecystokinin receptor type A (Homo sapiens) (P32238 whole entry): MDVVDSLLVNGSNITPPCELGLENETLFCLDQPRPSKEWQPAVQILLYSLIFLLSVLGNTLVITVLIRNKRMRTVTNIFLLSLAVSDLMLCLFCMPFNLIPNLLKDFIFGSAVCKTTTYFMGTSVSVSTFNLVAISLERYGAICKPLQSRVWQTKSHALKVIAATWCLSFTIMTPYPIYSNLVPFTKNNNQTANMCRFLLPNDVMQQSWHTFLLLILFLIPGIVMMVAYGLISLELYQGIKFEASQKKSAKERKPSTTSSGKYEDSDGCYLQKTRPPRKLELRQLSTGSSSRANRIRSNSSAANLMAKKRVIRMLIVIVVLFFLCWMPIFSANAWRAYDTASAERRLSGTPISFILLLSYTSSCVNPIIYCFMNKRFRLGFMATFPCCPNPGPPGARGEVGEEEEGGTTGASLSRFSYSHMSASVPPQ
Sequence of Cannabinoid receptor 1 (Homo sapiens) (P21554 whole entry): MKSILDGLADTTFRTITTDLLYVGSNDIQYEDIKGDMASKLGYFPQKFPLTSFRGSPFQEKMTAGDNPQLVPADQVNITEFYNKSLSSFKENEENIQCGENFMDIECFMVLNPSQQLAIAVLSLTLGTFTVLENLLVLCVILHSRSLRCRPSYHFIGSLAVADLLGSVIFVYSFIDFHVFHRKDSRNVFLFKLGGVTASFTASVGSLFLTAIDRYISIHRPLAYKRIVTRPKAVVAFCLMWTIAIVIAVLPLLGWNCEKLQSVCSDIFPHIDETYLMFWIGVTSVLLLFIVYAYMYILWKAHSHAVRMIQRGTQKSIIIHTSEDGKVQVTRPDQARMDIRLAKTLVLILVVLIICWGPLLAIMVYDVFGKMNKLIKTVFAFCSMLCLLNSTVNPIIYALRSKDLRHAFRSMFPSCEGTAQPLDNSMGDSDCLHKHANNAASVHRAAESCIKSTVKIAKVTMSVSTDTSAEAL
Sequence of Type-1 angiotensin II receptor (Homo sapiens) (P30556 whole entry): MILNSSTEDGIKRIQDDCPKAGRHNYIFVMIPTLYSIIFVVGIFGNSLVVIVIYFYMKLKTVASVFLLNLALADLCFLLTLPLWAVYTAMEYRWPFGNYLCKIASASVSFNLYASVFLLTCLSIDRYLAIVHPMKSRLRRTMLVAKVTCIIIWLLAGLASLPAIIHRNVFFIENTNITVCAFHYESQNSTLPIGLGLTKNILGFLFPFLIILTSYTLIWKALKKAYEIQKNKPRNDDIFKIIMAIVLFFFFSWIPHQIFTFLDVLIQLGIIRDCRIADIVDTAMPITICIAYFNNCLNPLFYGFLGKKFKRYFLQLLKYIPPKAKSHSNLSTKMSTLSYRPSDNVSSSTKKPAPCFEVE
Sequence of Vasopressin V1a receptor (Homo sapiens) (P37288 whole entry, looked up): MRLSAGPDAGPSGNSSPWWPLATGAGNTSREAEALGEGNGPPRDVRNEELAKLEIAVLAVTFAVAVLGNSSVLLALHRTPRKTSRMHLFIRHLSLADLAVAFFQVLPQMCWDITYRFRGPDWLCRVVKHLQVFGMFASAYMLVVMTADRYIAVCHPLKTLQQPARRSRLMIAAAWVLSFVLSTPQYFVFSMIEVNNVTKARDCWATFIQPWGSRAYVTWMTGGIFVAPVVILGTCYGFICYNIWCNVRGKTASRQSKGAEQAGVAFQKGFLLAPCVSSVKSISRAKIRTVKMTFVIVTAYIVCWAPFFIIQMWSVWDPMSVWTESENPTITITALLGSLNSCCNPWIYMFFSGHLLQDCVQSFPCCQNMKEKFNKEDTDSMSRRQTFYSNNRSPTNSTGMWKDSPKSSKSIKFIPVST
Sequence of Sigma non-opioid intracellular receptor 1 (Homo sapiens) (Q99720 whole entry): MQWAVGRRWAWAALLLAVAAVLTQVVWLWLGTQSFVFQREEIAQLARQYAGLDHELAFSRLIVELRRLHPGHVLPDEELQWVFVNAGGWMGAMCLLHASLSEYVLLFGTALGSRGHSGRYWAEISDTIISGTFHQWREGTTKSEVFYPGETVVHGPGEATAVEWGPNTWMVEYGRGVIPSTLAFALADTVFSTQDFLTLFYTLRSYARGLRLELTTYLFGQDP
Sequence of Neuropeptide Y receptor type 1 (Homo sapiens) (P25929 whole entry): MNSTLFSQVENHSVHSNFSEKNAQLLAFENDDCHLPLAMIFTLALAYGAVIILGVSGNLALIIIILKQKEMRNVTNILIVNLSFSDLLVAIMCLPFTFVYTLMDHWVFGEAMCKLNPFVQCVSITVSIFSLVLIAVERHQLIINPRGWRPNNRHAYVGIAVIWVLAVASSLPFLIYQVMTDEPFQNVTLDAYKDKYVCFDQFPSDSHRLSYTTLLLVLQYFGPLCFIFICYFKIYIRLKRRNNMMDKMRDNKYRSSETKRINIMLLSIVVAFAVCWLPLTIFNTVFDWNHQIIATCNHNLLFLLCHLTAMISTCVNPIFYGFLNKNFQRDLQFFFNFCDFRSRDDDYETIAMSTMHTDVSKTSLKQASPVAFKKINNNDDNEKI
Sequence of Beta-1 adrenergic receptor (Homo sapiens) (P08588 whole entry, looked up): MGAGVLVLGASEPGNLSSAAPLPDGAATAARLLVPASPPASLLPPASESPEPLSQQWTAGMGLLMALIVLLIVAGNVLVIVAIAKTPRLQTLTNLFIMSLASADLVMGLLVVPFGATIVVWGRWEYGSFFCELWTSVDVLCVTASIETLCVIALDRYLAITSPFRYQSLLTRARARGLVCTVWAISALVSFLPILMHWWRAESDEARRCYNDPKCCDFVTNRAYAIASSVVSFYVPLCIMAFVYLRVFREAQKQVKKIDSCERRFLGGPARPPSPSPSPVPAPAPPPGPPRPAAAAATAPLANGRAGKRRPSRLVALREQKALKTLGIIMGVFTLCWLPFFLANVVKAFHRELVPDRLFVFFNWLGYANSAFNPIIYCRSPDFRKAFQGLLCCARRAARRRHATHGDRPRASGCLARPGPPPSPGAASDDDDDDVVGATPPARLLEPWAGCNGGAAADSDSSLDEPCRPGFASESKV
Sequence of Endothelin receptor type B (Oryctolagus cuniculus) (Q9N0W7 whole entry): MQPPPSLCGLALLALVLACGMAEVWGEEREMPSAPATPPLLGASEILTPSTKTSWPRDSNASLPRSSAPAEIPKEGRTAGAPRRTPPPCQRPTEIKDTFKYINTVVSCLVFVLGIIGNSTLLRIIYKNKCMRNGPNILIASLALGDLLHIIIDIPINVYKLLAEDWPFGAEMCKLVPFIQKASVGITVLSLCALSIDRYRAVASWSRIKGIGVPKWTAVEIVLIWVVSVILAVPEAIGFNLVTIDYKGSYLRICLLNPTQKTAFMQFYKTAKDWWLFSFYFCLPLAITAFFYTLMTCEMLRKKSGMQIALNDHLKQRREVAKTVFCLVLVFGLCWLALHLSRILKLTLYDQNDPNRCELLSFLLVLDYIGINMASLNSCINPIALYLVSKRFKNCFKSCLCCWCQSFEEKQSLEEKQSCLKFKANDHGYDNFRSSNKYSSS
Sequence of Muscarinic acetylcholine receptor M1 (Homo sapiens) (P11229 whole entry): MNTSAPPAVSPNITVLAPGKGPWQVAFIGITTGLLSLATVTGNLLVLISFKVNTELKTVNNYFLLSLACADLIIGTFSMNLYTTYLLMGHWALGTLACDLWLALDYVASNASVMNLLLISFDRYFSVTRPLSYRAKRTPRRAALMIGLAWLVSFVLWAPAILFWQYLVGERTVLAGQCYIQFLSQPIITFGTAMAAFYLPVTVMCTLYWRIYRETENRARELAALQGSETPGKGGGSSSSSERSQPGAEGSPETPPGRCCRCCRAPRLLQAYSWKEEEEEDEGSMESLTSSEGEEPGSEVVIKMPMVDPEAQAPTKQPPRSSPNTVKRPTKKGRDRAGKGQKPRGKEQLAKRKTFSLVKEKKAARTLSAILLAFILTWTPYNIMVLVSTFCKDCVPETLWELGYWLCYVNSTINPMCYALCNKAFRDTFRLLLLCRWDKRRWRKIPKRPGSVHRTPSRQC
Sequence of 5-hydroxytryptamine receptor 5A (Homo sapiens) (P47898 whole entry): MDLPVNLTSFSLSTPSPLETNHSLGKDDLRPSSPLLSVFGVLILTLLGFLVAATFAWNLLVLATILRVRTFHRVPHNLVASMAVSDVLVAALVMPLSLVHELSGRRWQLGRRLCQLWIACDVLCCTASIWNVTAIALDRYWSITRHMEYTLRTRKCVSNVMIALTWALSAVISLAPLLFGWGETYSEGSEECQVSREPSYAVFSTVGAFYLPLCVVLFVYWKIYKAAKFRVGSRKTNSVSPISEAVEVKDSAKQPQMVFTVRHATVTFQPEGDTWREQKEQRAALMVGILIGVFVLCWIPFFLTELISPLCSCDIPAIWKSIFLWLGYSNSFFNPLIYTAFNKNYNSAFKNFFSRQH
Sequence of Histamine H2 receptor (Homo sapiens) (P25021 whole entry): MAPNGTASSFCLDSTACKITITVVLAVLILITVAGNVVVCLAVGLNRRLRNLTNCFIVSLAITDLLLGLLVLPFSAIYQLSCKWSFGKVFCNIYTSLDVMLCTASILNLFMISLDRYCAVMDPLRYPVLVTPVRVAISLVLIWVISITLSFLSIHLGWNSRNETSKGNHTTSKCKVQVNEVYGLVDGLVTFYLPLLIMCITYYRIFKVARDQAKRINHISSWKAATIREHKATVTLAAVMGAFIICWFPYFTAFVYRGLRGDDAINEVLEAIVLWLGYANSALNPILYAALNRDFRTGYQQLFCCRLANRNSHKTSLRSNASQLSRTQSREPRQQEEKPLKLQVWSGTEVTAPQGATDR
Sequence of Muscarinic acetylcholine receptor M5 (Homo sapiens) (P08912 whole entry): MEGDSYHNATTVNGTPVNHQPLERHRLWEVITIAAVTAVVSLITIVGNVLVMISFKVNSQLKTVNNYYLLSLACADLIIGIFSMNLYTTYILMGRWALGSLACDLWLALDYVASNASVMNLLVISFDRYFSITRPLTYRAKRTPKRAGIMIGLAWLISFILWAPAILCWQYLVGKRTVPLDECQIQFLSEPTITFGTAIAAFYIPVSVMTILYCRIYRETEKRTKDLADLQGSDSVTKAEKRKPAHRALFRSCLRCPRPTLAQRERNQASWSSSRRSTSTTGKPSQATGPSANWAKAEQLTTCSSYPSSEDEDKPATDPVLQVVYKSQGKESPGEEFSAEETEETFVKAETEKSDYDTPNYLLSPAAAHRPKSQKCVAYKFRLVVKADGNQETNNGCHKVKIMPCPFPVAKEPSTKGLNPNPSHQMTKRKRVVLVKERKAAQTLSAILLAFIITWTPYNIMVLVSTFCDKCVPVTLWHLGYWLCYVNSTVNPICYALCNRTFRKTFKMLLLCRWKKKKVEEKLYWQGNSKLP

Structure (SMILES): CCCCN(CCCC)C(=O)CN1[C@H](c2cc(OC)c3c(c2)OCO3)C[C@@H](C(=O)O)[C@@H]1CC(C)(C)CCC
- IC50 (Endothelin-1 receptor): 0.49 nM
- inhibition [1]: < 10%
- inhibition [2]: < 10%
- inhibition (Homo sapiens [3]): < 10%
- inhibition [4]: < 10%
- inhibition [5]: < 10%
- inhibition [6]: < 10%
- inhibition (Rattus norvegicus): < 10%
- inhibition (Homo sapiens [7]): < 10%
- inhibition [8]: < 10%
- inhibition [9]: < 10%
- inhibition [10]: < 10%
- inhibition [11]: < 10%
- inhibition (Homo sapiens [12]): 16%
- inhibition [13]: < 10%
- inhibition [14]: < 10%
- inhibition (Mus musculus): < 10%
- inhibition [15]: < 10%
- inhibition (Homo sapiens [16]): 22%
- Activity [17]: inactive
- Activity [18]: inactive
- Activity [19]: inactive
- half-life [20]: 3.3 h
- Activity [21]: Dose-Dependent Effect
